ChEMBL document CHEMBL1201862, “PubChem BioAssay data set” (2004)
“And” between values parts separate entries of the source, which are not always exact repeats. Equal entries are not always repeated.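 Exposure lasted 48 hours, with cells grown in 96-well plates and compounds tested at five concentrations. At the GI50, growth is halved.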 The source made the active and inactive calls. Rule as the data show it: active = GI50 up to about 1.1 µM and inactive = higher.

What was measured:
Test in all cases: DTP human tumour cell line panel, 48 h
SNB-75 = system: SNB-75
786-0 = system: 786-0
A498 = system: A498
A549 = system: A549
CAKI-1 = system: CAKI-1
CCRF-CEM = system: CCRF-CEM
COLO 205 = system: COLO 205
DU-145 = system: DU-145
EKVX = system: EKVX
HCC 2998 = system: HCC 2998
HCT-116 = system: HCT-116
HOP-62 = system: HOP-62
HT-29 = system: HT-29
Hs-578T = system: Hs-578T
IGROV-1 = system: IGROV-1
K562 = system: K562
M14 = system: M14
MCF7 = system: MCF7
MDA-MB-231 = system: MDA-MB-231
MDA-MB-435 = system: MDA-MB-435
MDA-N = system: MDA-N
MOLT-4 = system: MOLT-4
Malme-3M = system: Malme-3M
NCI-H226 = system: NCI-H226
NCI-H23 = system: NCI-H23
NCI-H522 = system: NCI-H522
NCI/ADR-RES = system: NCI/ADR-RES
OVCAR-3 = system: OVCAR-3
OVCAR-5 = system: OVCAR-5
OVCAR-8 = system: OVCAR-8
PC-3 = system: PC-3
RXF 393 = system: RXF 393
SF-268 = system: SF-268
SF-295 = system: SF-295
SF-539 = system: SF-539
SK-MEL-2 = system: SK-MEL-2
SK-MEL-5 = system: SK-MEL-5
SK-OV-3 = system: SK-OV-3
SN12C = system: SN12C
SR = system: SR
T47D = system: T47D
TK-10 = system: TK-10
U-251 = system: U-251
UACC-257 = system: UACC-257
UACC-62 = system: UACC-62
ACHN = system: ACHN
HCT-15 = system: HCT-15
HL-60 = system: HL-60
HOP-92 = system: HOP-92
KM12 = system: KM12
LOX IMVI = system: LOX IMVI
NCI-H460 = system: NCI-H460
OVCAR-4 = system: OVCAR-4
RPMI-8226 = system: RPMI-8226
SK-MEL-28 = system: SK-MEL-28
SW-620 = system: SW-620
UO-31 = system: UO-31

With `COC12C=CC(CC1)C(C)(C)C2O` (stereo not given) the GI50 (SNB-75) was 87.5 µM (inactive) and 52.7 µM (inactive).

In the case of `CC1(C)Oc2ccc3c(=O)cc(-c4ccc(F)cc4)oc3c2C1C(=O)O` (stereo not given), the GI50 (786-0) is reported as > 100 µM (inactive), the GI50 (A498) is reported as > 100 µM (inactive) and the GI50 (A549) is reported as > 100 µM (inactive). For the same compound, the GI50 (CAKI-1) was 23.3 µM (inactive), the GI50 (CCRF-CEM) was > 100 µM (inactive) and the GI50 (COLO 205) was > 100 µM (inactive). For the same compound, the GI50 (DU-145) was > 100 µM (inactive), the GI50 (EKVX) was > 100 µM (inactive) and the GI50 (HCC 2998) was > 100 µM (inactive). For the same compound, the GI50 (HCT-116) was > 100 µM (inactive), the GI50 (HOP-62) was > 100 µM (inactive) and the GI50 (HT-29) was > 100 µM (inactive). The GI50 (Hs-578T) was > 100 µM (inactive), the GI50 (IGROV-1) was > 100 µM (inactive) and the GI50 (K562) was > 100 µM (inactive). The GI50 (M14) was > 100 µM (inactive), the GI50 (MCF7) was > 100 µM (inactive) and the GI50 (MDA-MB-231) was > 100 µM (inactive). For the same compound, the GI50 (MDA-MB-435) was > 100 µM (inactive), the GI50 (MDA-N) was > 100 µM (inactive) and the GI50 (MOLT-4) was > 100 µM (inactive). For the same compound, the GI50 (Malme-3M) was > 100 µM (inactive), the GI50 (NCI-H226) was > 100 µM (inactive) and the GI50 (NCI-H23) was > 100 µM (inactive). The GI50 (NCI-H522) was > 100 µM (inactive), the GI50 (NCI/ADR-RES) was > 100 µM (inactive) and the GI50 (OVCAR-3) was > 100 µM (inactive). For the same compound, the GI50 (OVCAR-5) was > 100 µM (inactive), the GI50 (OVCAR-8) was > 100 µM (inactive) and the GI50 (PC-3) was > 100 µM (inactive). The GI50 (RXF 393) was > 100 µM (inactive), the GI50 (SF-268) was > 100 µM (inactive) and the GI50 (SF-295) was > 100 µM (inactive). The GI50 (SF-539) was > 100 µM (inactive), the GI50 (SK-MEL-2) was > 100 µM (inactive) and the GI50 (SK-MEL-5) was > 100 µM (inactive). For the same compound, the GI50 (SK-OV-3) was > 100 µM (inactive), the GI50 (SN12C) was > 100 µM (inactive) and the GI50 (SR) was > 100 µM (inactive). For the same compound, the GI50 (T47D) was > 100 µM (inactive), the GI50 (TK-10) was > 100 µM (inactive) and the GI50 (U-251) was > 100 µM (inactive). The GI50 (UACC-257) was > 100 µM (inactive) and the GI50 (UACC-62) was > 100 µM (inactive).

In the case of `O=C1CSC(c2ccccc2O)N1c1ccc2c(c1)Oc1c(Cl)c3c(c(Cl)c1=N2)Oc1cc(N2C(=O)CSC2c2ccccc2O)ccc1N=3` (stereo not given), the GI50 (786-0) is reported as 40.1 µM (inactive), the GI50 (A498) is reported as > 100 µM (inactive) and the GI50 (ACHN) is reported as 24.5 µM (inactive). The GI50 (CAKI-1) was > 100 µM (inactive), the GI50 (CCRF-CEM) was 18.1 µM (inactive) and the GI50 (DU-145) was 42.4 µM (inactive). For the same compound, the GI50 (EKVX) was > 100 µM (inactive), the GI50 (HCC 2998) was 53.3 µM (inactive) and the GI50 (HCT-116) was 30.6 µM (inactive). For the same compound, the GI50 (HCT-15) was > 100 µM, the GI50 (HL-60) was 0.664 µM (active) and the GI50 (HOP-62) was 28.6 µM (inactive). For the same compound, the GI50 (HOP-92) was 17.1 µM (inactive), the GI50 (HT-29) was 54.7 µM (inactive) and the GI50 (Hs-578T) was 30.3 µM (inactive). For the same compound, the GI50 (IGROV-1) was 36.1 µM (inactive), the GI50 (K562) was 13.2 µM (inactive) and the GI50 (KM12) was 34.3 µM (inactive). For the same compound, the GI50 (LOX IMVI) was 42.1 µM (inactive), the GI50 (M14) was 48.6 µM (inactive) and the GI50 (MCF7) was 34 µM (inactive). For the same compound, the GI50 (MDA-MB-231) was 28.9 µM (inactive), the GI50 (MDA-MB-435) was 29.1 µM (inactive) and the GI50 (MDA-N) was 38.4 µM (inactive). For the same compound, the GI50 (MOLT-4) was 2.55 µM (inactive), the GI50 (NCI-H226) was 73.6 µM (inactive) and the GI50 (NCI-H23) was 58.3 µM (inactive). The GI50 (NCI-H460) was 43 µM (inactive), the GI50 (NCI-H522) was 20.6 µM (inactive) and the GI50 (NCI/ADR-RES) was > 100 µM (inactive). For the same compound, the GI50 (OVCAR-3) was 33.3 µM (inactive), the GI50 (OVCAR-4) was 64.7 µM (inactive) and the GI50 (OVCAR-5) was > 100 µM (inactive). The GI50 (OVCAR-8) was 29.4 µM (inactive), the GI50 (PC-3) was 38.4 µM (inactive) and the GI50 (RPMI-8226) was 23.7 µM (inactive). For the same compound, the GI50 (RXF 393) was 17.1 µM (inactive), the GI50 (SF-268) was 32.7 µM (inactive) and the GI50 (SF-295) was 42 µM (inactive). For the same compound, the GI50 (SF-539) was 37.9 µM (inactive), the GI50 (SK-MEL-28) was 81.5 µM (inactive) and the GI50 (SK-MEL-2) was 47.6 µM (inactive). The GI50 (SK-MEL-5) was > 100 µM (inactive), the GI50 (SK-OV-3) was 25.8 µM (inactive) and the GI50 (SR) was 0.873 µM (active). For the same compound, the GI50 (SW-620) was 27.4 µM (inactive), the GI50 (T47D) was 37.4 µM (inactive) and the GI50 (TK-10) was 62.5 µM (inactive). The GI50 (U-251) was 24.9 µM (inactive), the GI50 (UACC-257) was 81.1 µM (inactive) and the GI50 (UO-31) was > 100 µM (inactive).

For `O=P(O)(O)OC1C(OP(=O)(O)O)C(OP(=O)(O)O)C(OP(=O)(O)O)C(OP(=O)(O)O)C1OP(=O)(O)O` (stereo not given), the GI50 (CCRF-CEM) was > 995 µM (inactive), the GI50 (EKVX) was > 560 µM (inactive) and the GI50 (HOP-92) was > 923 µM (inactive). The GI50 (OVCAR-4) was > 875 µM (inactive).
